Data as given in ChEMBL document CHEMBL2095176, “GSK Tuberculosis Screening Data”.
In brackets after ≈: the same amount, converted by molar mass.

system: Mycobacterium tuberculosis variant bovis BCG; test: microbe, parasite or virus in culture; format: functional

Compound | MIC90 [µM]
O=S(=O)(CCNCC1CC1)c1cccc(Nc2ccc(-c3cccc(F)c3)cn2)c1 | 5.3 (≈ 2.26 µg/mL)
O=C(Nc1ccc(C(F)(F)F)cc1)OCC1CCCN2CCCCC12 (stereo unspecified) | 6.9 (≈ 2.46 µg/mL)
c1coc(-c2nnc(Sc3ccnc(N4CCN(c5ccncc5)CC4)n3)n2CCN2CCOCC2)c1 | 5.3 (≈ 2.75 µg/mL)
Br.CC(C)(C)c1ccccc1OCCCON1C(=N)N=C(N)NC1(C)C | 1.8
COc1ccc(-c2ccc(Nc3cccc(S(=O)(=O)CCN(C)CCc4ccccn4)c3)nc2)cn1 | 7.3 (≈ 3.68 µg/mL)
CCCCCNc1nc(N2CCCC2)c2c(c1C#N)CCN(C)C2 | 1.6 (≈ 0.524 µg/mL)
CCCSc1ncccc1C(=O)Nc1ccccc1Nc1ccccc1 | 0.8 (≈ 0.291 µg/mL)
O=C(Nc1nc(-c2ccccn2)cs1)c1cccc(-n2cnnn2)c1 | 8.5 (≈ 2.97 µg/mL)
COc1ccc(C(=O)[C@H]2C[C@@H]2CN(Cc2ccccn2)Cc2ccccn2)cc1 | 7.7 (≈ 2.98 µg/mL)
CCCCOc1ccc(C(=O)Nc2nc(-c3ccccn3)cs2)cc1 | 1.6 (≈ 0.566 µg/mL)
CC(C)c1ccc(OCC(=O)NNC(=O)c2ccncc2)cc1 | 6.5 (≈ 2.04 µg/mL)
c1ccc(SCc2nn3c(-c4ccccc4)nnc3s2)cc1 | 7.5 (≈ 2.43 µg/mL)
O=C(Nc1ccc(F)c(Cl)c1)c1cnc(N2CCN(c3ncccn3)CC2)c2ccccc12 | 7.5 (≈ 3.47 µg/mL)
Cc1ccc2[nH]c(C3CCCNC3)c(-c3ccncc3)c2c1 (stereo unspecified) | 8.9 (≈ 2.59 µg/mL)
COc1ccc2sc(Nc3nc(C)n(-c4ccccc4)c(=O)n3)nc2c1 | 9.5 (≈ 3.47 µg/mL)
O=C(Nc1cccc(C(=O)N2CCCC(c3nc4ccccc4s3)C2)c1)c1cccs1 (stereo unspecified) | 3.6 (≈ 1.61 µg/mL)
CSc1ccccc1C(=O)Nc1nc(-c2ccccn2)cs1 | 3.8 (≈ 1.24 µg/mL)
O=C(C1CCN(c2nnc(-n3cccc3)s2)CC1)N1CCC(Cc2ccccc2)CC1 | 3.4 (≈ 1.48 µg/mL)
CC(C)N1CCN(c2nc(CCN3CCN(c4cccc(C(F)(F)F)c4C#N)CC3)cs2)CC1 | 5.5 (≈ 2.71 µg/mL)

Compound | MIC90 [µM]
c1ccc(Nc2nc(-c3ccccn3)cs2)nc1 | 0.9 (≈ 0.229 µg/mL)
CCS(=O)(=O)c1ccc(C(=O)Nc2nc(-c3ccccn3)cs2)cc1 | 3.7 (≈ 1.38 µg/mL)
O=C(Nc1nc(-c2ccccn2)cs1)c1ccco1 | 4.5 (≈ 1.22 µg/mL)
Cc1ccc(S(=O)(=O)N2CCC(n3nnc4cc(C(F)(F)F)ccc43)CC2)cc1Cl | 9.3 (≈ 4.27 µg/mL)
CCn1c(-c2nonc2N)nc2c(-c3cccc(Cl)c3)ncc(OCCCNCCc3c[nH]cn3)c21 | 4.3 (≈ 2.18 µg/mL)
CCCc1ccc(S(=O)(=O)Nc2ccc(CN3CCN(CC4CC4)CC3)cc2)cc1.O=C(O)C(F)(F)F.O=C(O)C(F)(F)F | 8.1
c1coc(-c2nnc(Sc3ccnc(N4CCN(c5ccncc5)CC4)n3)n2CCCN2CCOCC2)c1 | 2.8 (≈ 1.49 µg/mL)
CCCc1cc(=O)[nH]c(-n2nc(C)cc2NC(=O)C(CC)c2ccccc2)n1 (stereo unspecified) | 2.7 (≈ 1.02 µg/mL)
O=C(Nc1ccccc1-c1nc(Cl)cs1)OCC1CCNCC1 | 5.2 (≈ 1.83 µg/mL)
Nc1nc2cc(-c3cncc(Oc4ccc(F)cc4)c3)ccc2[nH]1.O=C(O)C(F)(F)F.O=C(O)C(F)(F)F | 6.2
Cc1ccc2c(CC(=O)Nc3nc(-c4ccccn4)cs3)coc2c1 | 10 (≈ 3.49 µg/mL)
COc1ccc(-c2ccc(Nc3cccc(S(=O)(=O)CCN4CCc5ccccc5C4)c3)nc2)cn1 | 3.6 (≈ 1.8 µg/mL)
Cc1ccc2nc(SCC(=O)N(C(C)C)C(C)C)[nH]c2c1 | 9.9 (≈ 3.02 µg/mL)
O=c1c2sc(-c3ccc(Cl)cc3)cc2ncn1-c1ccc2c(c1)OC[C@H](CN1CCCC1)O2 | 2.5 (≈ 1.2 µg/mL)
CCc1ccc(C2CC(C(F)(F)F)n3ncc(C(=O)NCc4cccs4)c3N2)cc1 (stereo unspecified) | 8.8 (≈ 3.82 µg/mL)
OC1(c2ccccc2)Oc2ccccc2N=C1c1ccccc1 (stereo unspecified) | 4.8 (≈ 1.45 µg/mL)
CCCc1cc(-c2nc(-c3ccc4c(c3)OCO4)cs2)ccn1 | 6.7 (≈ 2.17 µg/mL)
CC(C)n1ncc2c(C(=O)NCC(c3ccco3)N3CCCC3)cc(-c3ccccc3)nc21 (stereo unspecified) | 3.6 (≈ 1.6 µg/mL)
COc1ccc(-c2csc(NC(=O)c3cnc(SC)nc3)n2)cc1 | 1.1 (≈ 0.394 µg/mL)

Compound | MIC90 [µM]
COCCN(C)Cc1ccc(-c2cc(-c3c[nH]nc3-c3cccc(C)n3)ccn2)cc1 | 6 (≈ 2.48 µg/mL)
CCCCOc1ccc(NC(=O)C2CCCCC2)cc1 | 8.1 (≈ 2.23 µg/mL)
CCOc1ccc(-n2nc3c(C)nnc(NCc4ccccc4)c3c2C)cc1 | 4.8 (≈ 1.79 µg/mL)
CCc1c(C)sc2nc(C)nc(SCC(=O)NCc3ccccc3)c12 | 7.2 (≈ 2.68 µg/mL)
N[C@@H]1CCN(c2nc(-c3ccccc3)nc3ccccc23)C1 | 1.4 (≈ 0.407 µg/mL)
COc1ccc(-c2cc3nccc(C4CCCNC4)n3n2)cc1 (stereo unspecified) | 6.5 (≈ 2 µg/mL)
Cc1ccc2nc(C)c(C(=O)NCc3ccco3)n2c1 | 1 (≈ 0.269 µg/mL)
CCc1ccc(S(=O)(=O)Nc2cc(CN3CCN(CC4CC4)CC3)ccc2C)cc1 | 9.6 (≈ 4.11 µg/mL)
Cl.O=C(c1ccco1)N(CCCn1ccnc1)c1nc2c(Cl)cccc2s1 | 7.2
CC1=NN(C(=O)c2ccncc2)C(O)(c2ccncc2)C1 (stereo unspecified) | 2.6 (≈ 0.734 µg/mL)
Cc1ccc(C)c(-c2nnc(NC(=O)c3ccc4c(c3)CCCC4)o2)c1 | 3 (≈ 1.04 µg/mL)
Cc1c(C(=O)Nc2ccccc2)nnc2cc(-c3ccccc3)nn12 | 3.1 (≈ 1.02 µg/mL)
Cc1cc(N2CCCN(C)CC2)nc(Nc2cc(F)cc(F)c2)n1 | 3.4 (≈ 1.13 µg/mL)
Cc1[nH]n2c(=O)cc(-c3ccccc3Cl)nc2c1-c1ccccc1 | 8.1 (≈ 2.72 µg/mL)
Cc1cc(NC(=O)c2cc(Br)ccc2Cl)n(-c2nc(C)c(C)c(=O)[nH]2)n1 | 5.3 (≈ 2.31 µg/mL)
N=C(N)c1ccc(CCN2CCC(c3nc(COCC(F)(F)F)c(-c4ccc(F)cc4)o3)CC2)cc1.O=C(O)C(F)(F)F.O=C(O)C(F)(F)F | 8.2
O=C(Nc1ccccc1-c1nc(Cl)cs1)OCCC1CCCCN1 (stereo unspecified) | 0.2 (≈ 0.0732 µg/mL)
COc1cc(CCN2CC[C@H](NC(=O)c3ccc(Cl)c(Cl)c3)C2)ccc1OC1CCNCC1 | 7 (≈ 3.45 µg/mL)
